Results taken from paper PMC13253105, “Chemical inhibition of a CBASS anti-bacteriophage defense” (iScience, 2026).
Where two headings read alike, the source gives them in different places. Where a SMILES comes first, the peptide text is derived from it. The star is where a group is joined. Cbz = O=C(OCc1ccccc1)*; Bn = c1ccc(C*)cc1

Assays:
[1] = tested on: PsCap5 in E. coli BL21 (DE3) cells; type: cell-based
Method: The same E. coli BL21 (DE3) cells carrying the PsCap5 expression plasmid from above were grown in LB medium with 50 μg/mL kanamycin at 37°C with 220 rpm shaking to an OD600 of ∼0.6 (1 cm pathlength). […] The bacterial cultures were then serially diluted from 10-1 to 10−6, and 5 μL of each was spotted onto LB agar petri dishes supplemented with kanamycin. After overnight incubation, the plates were photographed and colonies formed by viable cells were counted.

LlCap5 = LlCap5 (Lactococcus cremoris, UniProt A0A1E7G0A2); experiment: biochemical; set-up: species or system Lactococcus lactis
LlCap5, sequence (A0A1E7G0A2 1-385): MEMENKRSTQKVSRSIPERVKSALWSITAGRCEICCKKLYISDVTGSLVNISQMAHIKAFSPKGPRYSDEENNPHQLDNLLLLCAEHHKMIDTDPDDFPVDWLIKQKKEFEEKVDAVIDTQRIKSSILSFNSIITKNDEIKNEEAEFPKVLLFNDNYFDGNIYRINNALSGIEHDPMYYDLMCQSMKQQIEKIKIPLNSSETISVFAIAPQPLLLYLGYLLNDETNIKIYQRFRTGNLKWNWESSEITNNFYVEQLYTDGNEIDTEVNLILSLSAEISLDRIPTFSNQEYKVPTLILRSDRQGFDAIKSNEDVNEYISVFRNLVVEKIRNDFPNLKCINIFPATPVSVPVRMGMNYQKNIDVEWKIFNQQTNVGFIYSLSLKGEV

PsCap5 = PsCap5 (Pseudomonas syringae pv. actinidiae, UniProt A0A2P0QGK5); experiment: biochemical; conditions: for inhibition of PsCap5 in rescreening of the compound library: normalized DNA band intensity, threshold 0.25
PsCap5, sequence (A0A2P0QGK5 10-397 limits assumed): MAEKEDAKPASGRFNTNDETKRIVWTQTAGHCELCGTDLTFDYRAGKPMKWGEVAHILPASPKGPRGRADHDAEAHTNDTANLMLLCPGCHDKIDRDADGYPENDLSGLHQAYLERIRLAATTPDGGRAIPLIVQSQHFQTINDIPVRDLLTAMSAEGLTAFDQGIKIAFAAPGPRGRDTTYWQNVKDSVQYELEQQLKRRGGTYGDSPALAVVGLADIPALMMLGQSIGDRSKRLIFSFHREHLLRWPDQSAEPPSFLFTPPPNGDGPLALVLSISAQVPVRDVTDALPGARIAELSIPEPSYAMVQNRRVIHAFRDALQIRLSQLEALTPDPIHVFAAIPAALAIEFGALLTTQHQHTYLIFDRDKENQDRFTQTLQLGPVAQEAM

DpnI = DpnI (Streptococcus pneumoniae serotype 4, UniProt P0A459); type: biochemical; conditions: 1 μL 100 μM inhibitor 20 in 10 μL buffer
DpnI, sequence (P0A459 whole entry, looked up): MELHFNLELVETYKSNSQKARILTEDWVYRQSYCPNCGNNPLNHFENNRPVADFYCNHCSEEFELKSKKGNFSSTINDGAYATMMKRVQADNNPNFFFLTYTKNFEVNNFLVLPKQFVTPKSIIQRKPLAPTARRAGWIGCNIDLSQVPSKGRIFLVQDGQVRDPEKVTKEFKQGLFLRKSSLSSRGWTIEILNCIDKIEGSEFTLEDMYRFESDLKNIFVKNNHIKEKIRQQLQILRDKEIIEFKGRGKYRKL

Cas9 = Cas9 (Streptococcus pyogenes serotype M1, UniProt Q99ZW2); type: biochemical; conditions: inhibitor 20 (100 µM)
Cas9, sequence (Q99ZW2 whole entry, looked up): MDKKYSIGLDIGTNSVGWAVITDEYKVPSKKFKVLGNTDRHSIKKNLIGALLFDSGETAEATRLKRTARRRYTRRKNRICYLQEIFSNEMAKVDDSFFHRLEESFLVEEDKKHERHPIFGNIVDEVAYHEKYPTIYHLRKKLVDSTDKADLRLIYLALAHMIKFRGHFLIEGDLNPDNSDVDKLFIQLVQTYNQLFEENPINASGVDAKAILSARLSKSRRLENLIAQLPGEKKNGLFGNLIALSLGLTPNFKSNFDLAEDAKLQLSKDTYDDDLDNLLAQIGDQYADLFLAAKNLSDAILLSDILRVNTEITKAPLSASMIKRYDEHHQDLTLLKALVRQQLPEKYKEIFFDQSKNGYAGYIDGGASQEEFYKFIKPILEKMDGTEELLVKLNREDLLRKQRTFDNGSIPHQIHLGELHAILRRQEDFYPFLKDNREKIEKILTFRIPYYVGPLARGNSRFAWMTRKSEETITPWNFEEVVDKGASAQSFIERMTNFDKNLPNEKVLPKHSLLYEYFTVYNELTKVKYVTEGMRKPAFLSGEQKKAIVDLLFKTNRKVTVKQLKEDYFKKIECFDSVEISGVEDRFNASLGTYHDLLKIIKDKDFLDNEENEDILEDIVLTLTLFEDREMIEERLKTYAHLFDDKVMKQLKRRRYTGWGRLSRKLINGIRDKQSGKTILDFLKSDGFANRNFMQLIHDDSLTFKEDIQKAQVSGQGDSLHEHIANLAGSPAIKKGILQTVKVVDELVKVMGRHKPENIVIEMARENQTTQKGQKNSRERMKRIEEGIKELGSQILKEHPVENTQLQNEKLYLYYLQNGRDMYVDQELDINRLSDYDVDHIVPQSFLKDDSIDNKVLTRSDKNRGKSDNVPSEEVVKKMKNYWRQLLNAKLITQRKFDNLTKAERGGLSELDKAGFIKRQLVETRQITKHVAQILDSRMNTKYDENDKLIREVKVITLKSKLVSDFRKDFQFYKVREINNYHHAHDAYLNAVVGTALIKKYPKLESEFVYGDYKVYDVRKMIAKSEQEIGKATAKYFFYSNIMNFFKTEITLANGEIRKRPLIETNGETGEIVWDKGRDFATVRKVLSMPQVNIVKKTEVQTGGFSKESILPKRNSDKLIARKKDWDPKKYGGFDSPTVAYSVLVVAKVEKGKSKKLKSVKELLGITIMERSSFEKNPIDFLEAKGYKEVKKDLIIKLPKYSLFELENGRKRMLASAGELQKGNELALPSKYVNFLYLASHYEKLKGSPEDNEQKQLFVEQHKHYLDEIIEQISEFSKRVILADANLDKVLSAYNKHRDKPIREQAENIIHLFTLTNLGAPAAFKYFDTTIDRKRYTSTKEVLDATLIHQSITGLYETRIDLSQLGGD

Row | Compound | IC50 (LlCap5) [µM] | inhibition of PsCap5 in rescreening of the compound library (PsCap5) | IC50 (PsCap5) [µM] | also measured
1 | 3′,2′-cGAMP [reference compound] | – | – | – | bacterial growth of E. coli carrying PsCap5 plasmid after extrinsic addition of activating ligand [1]: severe restriction of bacterial growth
2 | NS(=O)(=O)c1ccc(CCNC(=O)CCCn2c(SCc3cc(=O)n4cc(Br)ccc4n3)nc3ccsc3c2=O)cc1 [Compound 2] | 230 ± 10 | did not noticeably inhibit PsCap5 | – | –
3 | NS(=O)(=O)c1ccc(CCNC(=O)CSc2nc3ccccc3c(=O)n2Cn2c(SCC(=O)NCCc3ccc(S(N)(=O)=O)cc3)nc3ccccc3c2=O)cc1 [Compound 4] | – | – | – | inhibition of LlCap5 in biochemical screening (LlCap5; normalized DNA band intensity, threshold for activity 0.4): inactive against LlCap5; IC50 (PsCap5; read-out: IC50 against PsCap5, 50 nM PsCap5, 10 nM 3′,2′-cGAMP, 37°C 15 min, ±S.E.M. of biological triplicates): 11 ± 1 µM; rescue of E. coli from cGAMP-Cap5-induced toxicity [1]: failed to rescue
4 | O=C(CCN1C(=O)c2ccccc2C1=O)NCCCCCCNC(=O)CCN1C(=O)c2ccccc2C1=O [Compound 19] | > 100 | did not noticeably inhibit PsCap5 | – | –
5 | Cc1ccc(CNC(=O)c2ccc(Cn3c(=O)c4ccccc4n(CC(=O)NCc4ccco4)c3=O)cc2)cc1 [Compound 20] | 120 ± 60 | – | 24 ± 8 | inhibition of DpnI (DpnI): failed to inhibit; inhibition of Cas9 (Cas9): failed to inhibit Cas9; recovery of viable cells (bacterial population) ([1]; 0.33 mM compound 20, 0.2 mM 3′,2′-cGAMP, 37°C 3 h): ~100 fold
6 | COC(=O)C(NC(=O)C(Cc1ccc(OCc2ccccc2)cc1)NC(=O)C(Cc1ccccc1)NC(=O)CNC(=O)OCc1ccccc1)C(C)O (stereo not shown) [Compound 22] (Cbz-GFY(Bn)T-OMe; configuration not given here) | 58 ± 16 | did not noticeably inhibit PsCap5 | – | –
7 | Cn1c(=O)[nH]c(=O)c2c1nc(SCCSc1nc3c(c(=O)[nH]c(=O)n3C)n1CCc1ccccc1)n2CCc1ccccc1 [Compound 36] | 140 ± 20 | – | 100 ± 20 | –
8 | NC(=O)[C@H](Cc1ccc(O)cc1)NC(=O)[C@H](CCCCNC(=O)OCc1ccccc1)NC(=O)OCc1ccccc1 [Compound 37] | 260 ± 70 | – | 150 ± 40 | –
